Laboratory results published in US9113629B2, “4-amino-6-(4-substituted-phenyl)-picolinates and 6-amino-2-(4-substituted-phenyl)-pyrimidine-4-carboxylates and their use as herbicides” (DOW AGROSCIENCES LLC, priority 2013, dated 2015).
Read-outs that look alike come from different tables or passages of the source.

Key:
[1] = test system: Key Broadleaf Weed and Crop Species; experiment: Post-emergent Test II herbicidal activity (Table 5); format: in vivo; conditions: post-emergence, 336 h, 14 days after application; for pest or weed control at 70 g/ha: application rate 70 g ai/ha; for pest or weed control at 140 g/ha: application rate 140 g ai/ha
In short: (§1)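 Compounds, dissolved in 97:3 acetone/DMSO and diluted into an aqueous carrier containing crop oil concentrate and Triton X-155, are applied over the top of young plants at 187 L/ha. Injury is scored visually at 14 d, 0% meaning no effect and 100% complete kill.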

[2] = test system: Key Grass and Sedge Weeds as well as Grass Crops; experiment: Post-emergent Test II herbicidal activity (Table 6); format: in vivo; conditions: post-emergence, 336 h; for pest or weed control at 70 g/ha: 70 g ai/ha; for pest or weed control at 140 g/ha: 140 g ai/ha
In short: as §1

[3] = ABUTH: velvetleaf (Abutilon theophrasti), read-out: Visual Growth Reduction (%) 14 Days After Application, ABUTH
[4] = AMARE: redroot pigweed (Amaranthus retroflexus), read-out: Visual Growth Reduction (%) 14 Days After Application, AMARE
[5] = BRSNN: oilseed-rape, canola (Brassica napus), read-out: Visual Growth Reduction (%) 14 Days After Application, BRSNN
[6] = CHEAL: lambsquarters (Chenopodium album), read-out: Visual Growth Reduction (%) 14 Days After Application, CHEAL
[7] = EPHHL: wild poinsettia (Euphorbia heterophylla), read-out: Visual Growth Reduction (%) 14 Days After Application, EPHHL
[8] = HELAN: sunflower (Helianthus annuus), read-out: Visual Growth Reduction (%) 14 Days After Application, HELAN
[9] = VIOTR: wild pansy (Viola tricolor), read-out: Visual Growth Reduction (%) 14 Days After Application, VIOTR
[10] = CYPES: yellow nutsedge (Cyperus esculentus), read-out: Visual Growth Reduction (%) 14 Days After Application, CYPES
[11] = DIGSA: crabgrass (Digitaria sanguinalis), read-out: Visual Growth Reduction (%) 14 Days After Application, DIGSA
[12] = ECHCG: barnyardgrass (Echinochloa crus-galli), read-out: Visual Growth Reduction (%) 14 Days After Application, ECHCG
[13] = ORYSA: rice (Oryza sativa), crop, read-out: Visual Growth Reduction (%) 14 Days After Application, ORYSA
[14] = SETFA: giant foxtail (Setaria faberi), read-out: Visual Growth Reduction (%) 14 Days After Application, SETFA
[15] = SORVU: grain sorghum (Sorghum vulgare), read-out: Visual Growth Reduction (%) 14 Days After Application, SORVU
[16] = TRZSS (wheat, Triticum aestivum), crop, read-out: Visual Growth Reduction (%) 14 Days After Application, TRZSS
[17] = ZEAMX: maize, corn (Zea mays), crop, read-out: Visual Growth Reduction (%) 14 Days After Application, ZEAMX

COC(=O)c1nc(-c2ccc(I)cc2)cc(N)c1Cl [Compound 158]
pest or weed control at 70 g/ha [1, 3]: 95 to 100% | pest or weed control at 140 g/ha [1, 3]: 95 to 100% | pest or weed control at 70 g/ha [1, 4]: 95 to 100% | pest or weed control at 140 g/ha [1, 4]: 95 to 100% | pest or weed control at 70 g/ha [1, 5]: 60 to 74% | pest or weed control at 140 g/ha [1, 5]: 75 to 84% | pest or weed control at 70 g/ha [1, 6]: 95 to 100% | pest or weed control at 140 g/ha [1, 6]: 95 to 100% | pest or weed control at 70 g/ha [1, 7]: 95 to 100% | pest or weed control at 140 g/ha [1, 7]: 95 to 100% | pest or weed control at 70 g/ha [1, 8]: 75 to 84% | pest or weed control at 140 g/ha [1, 8]: 75 to 84% | pest or weed control at 70 g/ha [1, 9]: 0 to 29% | pest or weed control at 140 g/ha [1, 9]: 0 to 29% | pest or weed control at 70 g/ha [2, 10]: 45 to 59% | pest or weed control at 140 g/ha [2, 10]: 45 to 59% | pest or weed control at 70 g/ha [2, 11]: 60 to 74% | pest or weed control at 140 g/ha [2, 11]: 60 to 74% | pest or weed control at 70 g/ha [2, 12]: 60 to 74% | pest or weed control at 140 g/ha [2, 12]: 75 to 84% | pest or weed control at 70 g/ha [2, 13]: 0 to 29% | pest or weed control at 140 g/ha [2, 13]: 0 to 29% | pest or weed control at 70 g/ha [2, 14]: 0 to 29% | pest or weed control at 140 g/ha [2, 14]: 0 to 29% | pest or weed control at 70 g/ha [2, 15]: 85 to 94% | pest or weed control at 140 g/ha [2, 15]: 85 to 94% | pest or weed control at 70 g/ha [2, 16]: 0 to 29% | pest or weed control at 140 g/ha [2, 16]: 45 to 59% | pest or weed control at 70 g/ha [2, 17]: 0 to 29% | pest or weed control at 140 g/ha [2, 17]: 0 to 29%
